Data as given in patent US20110082130A1 (LIGAND PHARMACEUTICALS, INC., priority 2006, published 2011).

These compounds were tested against T1, chimeric human H3 receptor (Homo sapiens, UniProt Q9Y5N1) (assay: Chimeric human H3 receptor GTP binding assay (agonist-stimulated GTP-gamma35S binding, Example 7)). Conditions: Table I; P2 membranes of Sf9 cells, 1 μM histamine as agonist, Ki from IC50 by Cheng-Prusoff.
T1 construct: made in house; host or cells: Sf9 insect cells (baculovirus); P2 membrane preparation
Format: biochemical
In short: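 Sf9 membranes co-expressing chimeric human H3 receptor and heterotrimeric G-protein, 35 μg/tube, in pH 7.4 Tris buffer with 10 μM GDP. Test compounds (10^−10–10^−6 M) competed against 1 μM histamine, […] GTP-gamma35S, 60 min at room temperature. Filter-bound radioactivity counted; IC50 converted to Ki by Cheng-Prusoff. Agonism/inverse agonism tested without histamine (EC50).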

T1 sequence (Q9Y5N1 with tags, fused parts or gaps): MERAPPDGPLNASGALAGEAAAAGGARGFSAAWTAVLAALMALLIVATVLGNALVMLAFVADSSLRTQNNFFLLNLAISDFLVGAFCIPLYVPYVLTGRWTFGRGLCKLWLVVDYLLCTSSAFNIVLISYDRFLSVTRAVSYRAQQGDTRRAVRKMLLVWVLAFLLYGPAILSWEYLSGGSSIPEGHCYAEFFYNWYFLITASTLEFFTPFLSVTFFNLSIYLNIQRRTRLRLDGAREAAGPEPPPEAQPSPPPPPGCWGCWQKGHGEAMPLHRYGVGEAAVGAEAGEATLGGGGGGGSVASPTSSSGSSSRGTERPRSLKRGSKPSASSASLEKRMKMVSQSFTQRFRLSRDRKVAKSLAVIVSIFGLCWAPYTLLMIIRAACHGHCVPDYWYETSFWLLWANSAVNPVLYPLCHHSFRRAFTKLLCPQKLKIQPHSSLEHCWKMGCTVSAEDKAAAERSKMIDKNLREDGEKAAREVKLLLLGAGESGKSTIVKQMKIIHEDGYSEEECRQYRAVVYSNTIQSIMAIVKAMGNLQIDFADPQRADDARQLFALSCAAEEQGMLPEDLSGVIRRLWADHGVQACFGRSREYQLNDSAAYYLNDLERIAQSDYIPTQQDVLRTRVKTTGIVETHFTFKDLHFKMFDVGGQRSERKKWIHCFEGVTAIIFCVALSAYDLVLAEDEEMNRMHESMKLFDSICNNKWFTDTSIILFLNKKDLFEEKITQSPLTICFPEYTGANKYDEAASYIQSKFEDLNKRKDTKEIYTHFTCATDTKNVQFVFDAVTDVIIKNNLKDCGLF

Question: Which Ki does the source give for `CNC(=O)c1ccc2c(c1)CN(CC(=O)N1CCN(C3CCC3)CC1)CC2` [Compound 66, 2-[2-(4-cyclobutylpiperazin-1-yl)-2-oxoethyl]-N-methyl-1,2,3,4-tetrahydroisoquinoline-7-carboxamide] here?
Answer: Its Ki is < 1000 nM.

Question: For `CCC1c2ccccc2CCN1CC(=O)N1CCN(C(C)C)CC1` (stereo not drawn) [Compound 56, 1-ethyl-2-[2-(4-isopropylpiperazin-1-yl)-2-oxoethyl]-1,2,3,4-tetrahydroisoquinoline], which Ki is on record?
Answer: The Ki was < 1000 nM.

Question: For `CC(C)CC1c2ccccc2CCN1CC(=O)N1CCN(C(C)C)CC1` (stereo not drawn) [Compound 57, 1-isobutyl-2-[2-(4-isopropylpiperazin-1-yl)-2-oxoethyl]-1,2,3,4-tetrahydroisoquinoline], which Ki is on record?
Answer: Its Ki is < 1000 nM.

Question: How did the Ki turn out when `CC(=O)c1ccc(-c2ccc3c(c2)CCN(CC(=O)N2CCN(C4CCC4)CC2)C3)cc1` [Compound 67, 1-(4-{2-[2-(4-cyclobutylpiperazin-1-yl)-2-oxoethyl]-1,2,3,4-tetrahydroisoquinolin-6-yl}phenyl)ethanone] was run?
Answer: Its Ki is < 1000 nM.

Question: `COc1ccc2c(c1)CCN(CC(=O)N1CCN(C3CCC3)CC1)C2c1ccccc1Cl` (stereo not drawn) [Compound 62, 1-(2-chlorophenyl)-2-[2-(4-cyclobutylpiperazin-1-yl)-2-oxoethyl]-6-methoxy-1,2,3,4-tetrahydroisoquinoline] was tested. Which Ki did it give?
Answer: The Ki was < 1000 nM.

Question: For `CC(=O)c1ccc(-c2ncnc3c2CCN(CC(=O)N2CCN(C4CCC4)CC2)CC3)cc1` [Compound 79, 1-(4-{7-[2-(4-cyclobutylpiperazin-1-yl)-2-oxoethyl]-6,7,8,9-tetrahydro-5H-pyrimido[4,5-d]azepin-4-yl}phenyl)ethanone], which Ki is on record?
Answer: Its Ki is < 1000 nM.

Question: Which Ki does the source give for `CC(=O)c1ccc(-c2ncc3c(n2)CCN(CC(=O)N2CCN(C4CCC4)CC2)C3)cc1` [Compound 71, 1-(4-{6-[2-(4-cyclobutylpiperazin-1-yl)-2-oxoethyl]-5,6,7,8-tetrahydropyrido[4,3-d]pyrimidin-2-yl}phenyl)ethanone] here?
Answer: The Ki was < 1000 nM.

Same assay, conditions: Table II "Ki", symbol *; assay of Example 7

Question: Which Ki does the source give for `CO[C@H]1CCN(c2ccc3c(n2)CCN(CC(=O)N2CCN(C4CCC4)CC2)C3)C1` [Compound 670, 6-[2-(4-cyclobutylpiperazin-1-yl)-2-oxoethyl]-2-[(3S)-3-methoxypyrrolidin-1-yl]-5,6,7,8-tetrahydro-1,6-naphthyridine] here?
Answer: The Ki was < 1000 nM.

Question: With `CCOc1cccc(-c2ccc3c(c2)CCN(CC(=O)N2CCN(C4CCC4)CC2)C3)c1` [Compound 482, 2-[2-(4-cyclobutylpiperazin-1-yl)-2-oxoethyl]-6-(3-ethoxyphenyl)-1,2,3,4-tetrahydroisoquinoline] as the compound, how does the Ki read?
Answer: The Ki was < 1000 nM.

Question: `COc1ccc(-c2ccc3c(c2)CCN(CC(=O)N2CCN(C4CCCC4)CC2)C3)cc1` [Compound 521, 2-[2-(4-cyclopentylpiperazin-1-yl)-2-oxoethyl]-6-(4-methoxyphenyl)-1,2,3,4-tetrahydroisoquinoline] was tested. Which Ki did it give?
Answer: The Ki was < 1000 nM.

Question: Which Ki does the source give for `O=C(CN1CCc2cc(-c3cccc4[nH]ccc34)ccc2C1)N1CCN(C2CCC2)CC1` [Compound 639, 2-[2-(4-cyclobutylpiperazin-1-yl)-2-oxoethyl]-6-(1H-indol-4-yl)-1,2,3,4-tetrahydroisoquinoline] here?
Answer: The Ki was < 1000 nM.

Question: `COC1CCN(c2ccc3c(n2)CCN(CC(=O)N2CCN(C4CCC4)CC2)C3)CC1` [Compound 681, 6-[2-(4-cyclobutylpiperazin-1-yl)-2-oxoethyl]-2-(4-methoxypiperidin-1-yl)-5,6,7,8-tetrahydro-1,6-naphthyridine] was tested. Which Ki did it give?
Answer: Its Ki is < 1000 nM.

Question: With `CCOc1ccc(-c2ccc3c(c2)CCN(CC(=O)N2CCN(C4CCC4)CC2)C3)cc1` [Compound 528, 2-[2-(4-cyclobutylpiperazin-1-yl)-2-oxoethyl]-6-(4-ethoxyphenyl)-1,2,3,4-tetrahydroisoquinoline] as the compound, how does the Ki read?
Answer: Its Ki is < 1000 nM.

Question: For `N#Cc1ccccc1-c1ccc2c(c1)CCN(CC(=O)N1CCN(C3CCC3)CC1)C2` [Compound 627, 2-{2-[2-(4-cyclobutylpiperazin-1-yl)-2-oxoethyl]-1,2,3,4-tetrahydroisoquinolin-6-yl}benzonitrile], which Ki is on record?
Answer: The Ki was < 1000 nM.

Question: Which Ki does the source give for `COc1ccc(-c2ccc3c(c2)CCN(CC(=O)N2CCN(C4CCCCC4)CC2)C3)cc1OC` [Compound 526, 2-[2-(4-cyclohexylpiperazin-1-yl)-2-oxoethyl]-6-(3,4-dimethoxyphenyl)-1,2,3,4-tetrahydroisoquinoline] here?
Answer: Its Ki is < 1000 nM.

Question: Which Ki does the source give for `O=C(CN1CCc2nc(NC3CCCCC3)ccc2C1)N1CCN(C2CCC2)CC1` [Compound 658, 6-[2-(4-cyclobutylpiperazin-1-yl)-2-oxoethyl]-N-cyclohexyl-5,6,7,8-tetrahydro-1,6-naphthyridin-2-amine] here?
Answer: Its Ki is < 1000 nM.

Question: For `O=C(CN1CCc2nc(NC3CCC3)ccc2C1)N1CCN(C2CCC2)CC1` [Compound 654, N-cyclobutyl-6-[2-(4-cyclobutylpiperazin-1-yl)-2-oxoethyl]-5,6,7,8-tetrahydro-1,6-naphthyridin-2-amine], which Ki is on record?
Answer: The Ki was < 1000 nM.

Same assay, conditions: Table II; "*" = Ki in assay of Example 7 less than 1 micromolar

Question: `CN(C)c1ccc2c(n1)CCN(CC(=O)N1CCN(C3CCC3)CC1)C2` [Compound 224, 6-[2-(4-cyclobutylpiperazin-1-yl)-2-oxoethyl]-N,N-dimethyl-5,6,7,8-tetrahydro-1,6-naphthyridin-2-amine] was tested. Which Ki did it give?
Answer: The Ki was < 1000 nM.

Question: With `COc1ccc(-n2cc3c(n2)CCN(CC(=O)N2CCN(C4CCC4)CC2)C3)nn1` [Compound 199, 5-[2-(4-cyclobutylpiperazin-1-yl)-2-oxoethyl]-2-(6-methoxypyridazin-3-yl)-4,5,6,7-tetrahydro-2H-pyrazolo[4,3-c]pyridine] as the compound, how does the Ki read?
Answer: The Ki was < 1000 nM.

Question: For `COc1ccc(-n2cc3c(n2)CCN(CC(=O)N2CCN(C4CCC4)CC2)C3)cc1` [Compound 238, 5-[2-(4-cyclobutylpiperazin-1-yl)-2-oxoethyl]-2-(4-methoxyphenyl)-4,5,6,7-tetrahydro-2H-pyrazolo[4,3-c]pyridine], which Ki is on record?
Answer: Its Ki is < 1000 nM.

Question: Which Ki does the source give for `CC1CN(C(=O)CN2CCc3nc(-c4nccs4)sc3C2)CCN1C1CCC1` (stereo not drawn) [Compound 115, 5-[2-(4-cyclobutyl-3-methylpiperazin-1-yl)-2-oxoethyl]-2-(1,3-thiazol-2-yl)-4,5,6,7-tetrahydro[1,3]thiazolo [5,4-c]pyridine] here?
Answer: Its Ki is < 1000 nM.

Question: `CC1CN(C(=O)CN2CCc3nc(-c4cncnc4)sc3C2)CCN1C1CCC1` (stereo not drawn) [Compound 111, 5-[2-(4-cyclobutyl-3-methylpiperazin-1-yl)-2-oxoethyl]-2-pyrimidin-5-yl-4,5,6,7-tetrahydro[1,3] thiazolo [5,4-c]pyridine] was tested. Which Ki did it give?
Answer: Its Ki is < 1000 nM.

Question: With `CC(=O)c1ccc(-n2cc3c(n2)CCN(CC(=O)N2CCN(C4CCC4)CC2)C3)nc1` [Compound 96, 1-(6-{5-[2-(4-cyclobutylpiperazin-1-yl)-2-oxoethyl]-4,5,6,7-tetrahydro-2H-pyrazolo[4,3-c]pyridin-2-yl}pyridin-3-yl)ethanone] as the compound, how does the Ki read?
Answer: The Ki was < 1000 nM.

Question: How did the Ki turn out when `O=C(CN1CCc2cc(-n3ccc(C(F)(F)F)n3)ccc2C1)N1CCN2CCCCC2C1` (stereo not drawn) [Compound 159, 2-({6-[3-(trifluoromethyl)-1H-pyrazol-1-yl]-3,4-dihydroisoquinolin-2(1H)-yl}acetyl)octahydro-2H-pyrido[1,2-a]pyrazine] was run?
Answer: The Ki was < 1000 nM.

Question: For `CC(=O)c1ccc(-n2ncc3c2CCN(CC(=O)N2CCN(C4CCC4)CC2)C3)cc1` [Compound 92, 1-(4-{5-[2-(4-cyclobutylpiperazin-1-yl)-2-oxoethyl]-4,5,6,7-tetrahydro-1H-pyrazolo[4,3-c]pyridin-1-yl}phenyl)ethanone], which Ki is on record?
Answer: The Ki was < 1000 nM.

Question: Which Ki does the source give for `C[C@H]1CCCN1c1ccc2c(n1)CCN(CC(=O)N1CCN(C3CCC3)CC1)C2` (stereo in doubt) [Compound 223, 6-[2-(4-cyclobutylpiperazin-1-yl)-2-oxoethyl]-2-(2-methylpyrrolidin-1-yl)-5,6,7,8-tetrahydro-1,6-naphthyridine] here?
Answer: The Ki was < 1000 nM.

Question: For `Cc1ccc(-c2ccc3c(c2)CCN(CC(=O)N2CCN(C4CCC4)CC2)C3)nn1` [Compound 166, 2-[2-(4-cyclobutylpiperazin-1-yl)-2-oxoethyl]-6-(6-methylpyridazin-3-yl)-1,2,3,4-tetrahydroisoquinoline], which Ki is on record?
Answer: Its Ki is < 1000 nM.

Question: How did the Ki turn out when `COC(=O)c1ccc(-c2nc3c(s2)CN(CC(=O)N2CCN(C4CCC4)CC2)CC3)cc1` [Compound 100, methyl 4-{5-[2-(4-cyclobutylpiperazin-1-yl)-2-oxoethyl]-4,5,6,7-tetrahydro[1,3]thiazolo [5,4-c]pyridin-2-yl}benzoate] was run?
Answer: The Ki was < 1000 nM.

Same assay, conditions: assay of Example 7; "*" in Ki of Table II

Question: How did the Ki turn out when `O=C(CN1CCc2nc(-c3cccc(F)c3F)sc2C1)N1CCN(C2CCC2)CC1` [Compound 356, 5-[2-(4-cyclobutylpiperazin-1-yl)-2-oxoethyl]-2-(2,3-difluorophenyl)-4,5,6,7-tetrahydro[1,3]thiazolo [5,4-c]pyridine] was run?
Answer: Its Ki is < 1000 nM.

Question: How did the Ki turn out when `CC(C)N1CCN(C(=O)CN2CCc3cc(-c4ccc(S(C)(=O)=O)cc4)ccc3C2)CC1` [Compound 382, 2-[2-(4-isopropylpiperazin-1-yl)-2-oxoethyl]-6-[4-(methylsulfonyl)phenyl]-1,2,3,4-tetrahydroisoquinoline] was run?
Answer: Its Ki is < 1000 nM.

Question: For `Cc1cccc(C)c1-c1nc2c(s1)CN(CC(=O)N1CCN(C3CCC3)CC1)CC2` [Compound 363, 5-[2-(4-cyclobutylpiperazin-1-yl)-2-oxoethyl]-2-(2,6-dimethylphenyl)-4,5,6,7-tetrahydro[1,3]thiazolo [5,4-c]pyridine], which Ki is on record?
Answer: The Ki was < 1000 nM.

Question: For `CCCCc1ccc(-c2nc3c(s2)CN(CC(=O)N2CCN(C4CCC4)CC2)CC3)cc1` [Compound 309, 2-(4-butylphenyl)-5-[2-(4-cyclobutylpiperazin-1-yl)-2-oxoethyl]-4,5,6,7-tetrahydro[1,3]thiazolo [5,4-c]pyridine], which Ki is on record?
Answer: The Ki was < 1000 nM.

Question: How did the Ki turn out when `O=C(CN1CCc2nc(-c3ccc(F)c(Cl)c3)sc2C1)N1CCN(C2CCC2)CC1` [Compound 346, 2-(3-chloro-4-fluorophenyl)-5-[2-(4-cyclobutylpiperazin-1-yl)-2-oxoethyl]-4,5,6,7-tetrahydro[1,3]thiazolo [5,4-c]pyridine] was run?
Answer: The Ki was < 1000 nM.
